Laboratory results reported in article PMC9519446, “Discovery of an Orally Active Benzoxaborole Prodrug Effective in the Treatment of Chagas Disease in Non-human Primates” (Nature microbiology, 2022).
“And” between values parts separate entries of the source, which are not always exact repeats. Identical values can stand only once.

What was measured:
[1] = system: T. cruzi CL strain in Vero cells; assay: RNA-seq: parasite mRNA relative to host cell (Vero) mRNA; type: cell-based, Trypanosoma cruzi
Description: The drug concentration used for treatment was set at 5 times the IC50. Samples were collected at several time points for RNA extraction as previously described. rRNA-depleted RNA library construction and RNA sequencing using Illumina Nextseq 75PE was carried out by Georgia Genomics and Bioinformatics Core (GGBC, University of Georgia, Georgia). […] The mapping rate was quantified by HTseq v0.6.1 [51].

NHP bodyweights = type: in vivo, rhesus macaques (Macaca mulatta); conditions: individual treated macaques
Description: Under light-anesthesia/sedation, peripheral blood samples were collected from each animal prior to treatment and at 7 time points following. Blood analysis (CBC and serum chemistry assays) and physical exams to evaluate the health of the study animals were performed on each animal prior to the beginning of the study and also at three time points during the treatment protocol (see Supplementary data).

[2] = Pharmacokinetic (PK) analysis in NHP; type: in vivo, rhesus macaques (Macaca mulatta); conditions: 30 mg/kg dose
Description: Mid- and end-regimen PK assessments were also performed. […] Only 1 blood sample was collected at a single time point from each of the 18 animals. […] The plasma samples were provided to Pharmout Labs (Fremont, California) for analysis using LC-MS/MS. […] For calculation of PK parameters, the Cmax (maximum concentrations) and tmax (time to maximum concentrations) were determined by visual inspection of the plasma concentration vs. time curves from the pre-regimen and end-regimen periods. PK calculation was not performed for the mid-regimen PK samples since only 2 time points were collected. The AUC values for the pre- and end-regimen were calculated using the linear-trapezoidal rule with the following equation: AUC(t1-t2)=[(Ct2+Ct1)x(t2-t1)]/2 where t1 and t2 are consecutive sampling time points, AUC(t1-t2) is the fractional area-under-the-curve over time intervals t1 and t2, Ct2 is the concentration at time t2, Ct1 is the concentration at time t1. […] AUC0-∞ was estimated using the following equation: AUC0-∞=[…] Where AUC0-∞ was AUC from zero to infinity, AUClast was the AUC from zero to the last measurable time point, Clast was the concentration at the last measurable time point. AUC0-∞ and t1/2 were not estimated when the terminal elimination phase was not defined. Plasma clearance (CLp) after the IV dose was estimated using the following: CLp = Dose/AUC0-∞.

[3] = system: T. cruzi (naturally acquired infection); assay: NHP treatment study: hemoculture; type: in vivo, rhesus macaques (Macaca mulatta); conditions: 30 mg/kg/day oral 60 days; all time points after end of treatment
Description: A total of 22 rhesus macaques that had been confirmed to be serologically- and PCR-positive for T. cruzi were utilized in these studies. Using 19 animals in the treatment group provided 85% power of detecting 100% efficacy. […] The remaining three animals on the study were maintained as untreated control animals and received food treats but were not dosed with AN15368.
For hemoculture determinations, peripheral blood from macaques was collected and cultured at 26°C in supplemented liver digest neutralized tryptose medium as described previously. The presence of T. cruzi parasites was assessed every week for 3 months under an inverted microscope. T. cruzi DTU of the macaque isolates was determined as previously described.

[4] = Plasma protein binding (cyno); type: in vitro ADME
[5] = system: TcCBP KO T. cruzi intracellular amastigotes; assay: microbe, parasite or virus in culture; type: cell-based; conditions: Trypanosoma cruzi, read-out: TcCBP KO IC50
Description: The in vitro anti-T. cruzi amastiogote activity assay was performed and optimized based on the protocol described previously. The change in tdTomato fluorescence intensity was determined as a measurement of growth over 72 hours of culture. For assaying drug effects on extracellular amastigotes, trypomastigotes were collected from infected Vero cell cultures and converted in acidic media as previously described. Amastigotes (50,000/well) were incubated with 2-fold serial dilutions of compounds for 48 hours. The ATP production was used as an indication of growth in this case, and was measured by ATPlite Luminescence ATP Detection Assay System (PerkinElmer). Both fluorescence and luminescence were read using a BioTek Synergy Hybrid Multi-Mode reader equipped with the software Gene5 v 2.0 (BioTek). The dose-response curve was generated by […] analysis with GraphPad Prism v9.4.0 (GraphPad Software).
The CBPs knockout was produced using ribonucleoprotein (RNP) complexes as previously described. Briefly, Brazil tdTomato strain epimastigotes were electroporated with RNP complexes containing SaCas9 and an sgRNA targeting CBP gene TcBrA4_0048170, plus a repair template containing stop codons in all three reading frames and the M13 sequence for use as a PCR anchor. The sgRNA targeted the ‘[…]” sequence. After 2 days of recovery, single-cell clones were derived by depositing epimastigotes into a 96-well plate at a density of 0.5 cell/well by using a MoFlo Astrios EQ cell sorter (Beckman Coulter). DNA isolation was performed for clones, and primer pair of 5’-[…]-3’ and 5’- […] -3’ was used for amplifying the wild type allele, while primer pair of M13-F: 5’- […] -3’ and 5’- […] -3’ was used for amplifying the mutant allele.

SMILES: Cc1c(C(=O)NC(C(=O)OCc2ccc(F)c(F)c2)C(C)C)ccc2c1B(O)OC2 (stereo not shown) [AN14353]
- RNA-seq reads mapped to African green monkey ([1]; 0hpt): 60
- RNA-seq reads mapped to T.cruzi CL Brener ([1]; 0hpt): 14
- RNA-seq reads unmapped ([1]; 0hpt): 26
- RNA-seq reads mapped to African green monkey ([1]; 6hpt): 63
- RNA-seq reads mapped to T.cruzi CL Brener ([1]; 6hpt): 5
- RNA-seq reads unmapped ([1]; 6hpt): 32
- RNA-seq reads mapped to African green monkey ([1]; 12hpt): 62
- RNA-seq reads mapped to T.cruzi CL Brener ([1]; 12hpt): 2
- RNA-seq reads unmapped ([1]; 12hpt): 35
- RNA-seq reads mapped to African green monkey ([1]; 24hpt): 77
- RNA-seq reads mapped to T.cruzi CL Brener ([1]; 24hpt): 1
- RNA-seq reads unmapped ([1]; 24hpt): 22
- parasite mRNA relative to host cell mRNA ([1]; T. cruzi-infected Vero cells, 30 nM AN14353 or 5 uM benznidazole, from 6 hrs): marked and continuing reduction in parasite mRNA

SMILES: Cc1c(C(=O)N[C@H](C(=O)OCC2CCOCC2)C(C)C)ccc2c1B(O)OC2 [AN15368]
- bodyweight at end of study (remark) (NHP bodyweights): Weighed less at end of study
- Bodyweights (NHP bodyweights; weighing 2017-09-11/12): 6.37 kg and 8.90 kg and 7.40 kg and 5.20 kg and 6.40 kg and 6.70 kg and 7.70 kg and 7.60 kg and 7.10 kg and 6.30 kg and 7.20 kg and 7.30 kg
- Bodyweights (NHP bodyweights; weighing 2017-10-18/19): 7.00 kg and 9.40 kg and 7.50 kg and 5.30 kg and 6.60 kg and 7.10 kg and 8.00 kg and 7.70 kg and 7.20 kg and 6.40 kg
- Bodyweights (NHP bodyweights; weighing 2017-11-16): 7.30 kg and 9.70 kg and 7.70 kg and 5.50 kg and 6.90 kg and 8.30 kg and 7.00 kg and 6.70 kg and 7.90 kg
- Bodyweights (NHP bodyweights; weighing 2017-12-05/06): 7.50 kg and 9.70 kg and 7.80 kg and 5.80 kg and 6.90 kg and 7.10 kg and 8.10 kg and 7.00 kg and 8.40 kg
- Bodyweights (NHP bodyweights; weighing 2017-12-19/20): 7.50 kg and 9.70 kg and 7.60 kg and 5.50 kg and 6.50 kg and 6.70 kg and 8.10 kg and 7.40 kg and 6.60 kg and 7.90 kg and 7.70 kg
- Bodyweights (NHP bodyweights; weighing 2018-01-08/09): 7.60 kg and 9.80 kg and 7.80 kg and 5.40 kg and 6.60 kg and 6.80 kg and 8.20 kg and 6.90 kg and 7.00 kg
- Bodyweights (NHP bodyweights; weighing 2018-01-22/23): 7.60 kg and 9.95 kg and 7.90 kg and 5.60 kg and 6.80 kg and 7.15 kg and 8.25 kg and 7.65 kg and 6.85 kg and 8.10 kg and 8.20 kg
- Bodyweights (NHP bodyweights; weighing 2018-02-26/27): 8.05 kg and 10.20 kg and 7.90 kg and 5.70 kg and 6.95 kg and 7.25 kg and 8.45 kg and 7.80 kg and 7.30 kg and 8.35 kg and 8.25 kg
- Bodyweights (NHP bodyweights; weighing 2018-03-26/27): 8.00 kg and 10.15 kg and 5.75 kg and 7.00 kg and 7.55 kg and 8.65 kg and 7.85 kg and 6.95 kg and 7.50 kg and 8.20 kg and 8.75 kg
- Bodyweights (NHP bodyweights; weighing 2018-04-09/10/11): 7.95 kg and 10.20 kg and 8.10 kg and 5.90 kg and 6.85 kg and 7.15 kg and 8.70 kg
- exposure [2]: 3.5 to 4.7 µg·h/kg
- culture of parasites from blood (in words) [3]: negative
- Funbound (cyno) [4]: 21%
- IC50 [5]: 2500 nM
